Source: publication PMC7813677 (Frontiers in Bioengineering and Biotechnology, 2021)
Non-standard residues stand in square brackets, D forms with d. Residues, ends and D or L forms follow the SMILES beside them.

Assay: Dissolution of the peptide in water
Type: physicochemical
Conditions: before addition of saline buffer pH 7.4
Method: Gels were prepared by dissolving lyophilized peptide in water to obtain 2X concentrated (wt%) peptide stock solution. Peptide assembly was initiated by mixing together equal volumes of peptide stock solution and chilled 2X HEPES buffer solution (150 mM HEPES, 300 mM NaCl, pH 7.4) on ice. The final mixed solution (1X wt% peptide in 75 mM HEPES, 150 mM NaCl, pH 7.4) was then incubated for 2 h at 37°C, resulting with a self-supporting gel.

Solubility in water: readily dissolved in water
SMILES: CC(C)[C@H](N)C(=O)N[C@@H](CCCCN)C(=O)N[C@H](C(=O)N[C@@H](CCCCN)C(=O)N[C@H](C(=O)N[C@@H](CCCCN)C(=O)N[C@H](C(=O)N[C@@H](CCCCN)C(=O)N[C@H](C(=O)N1CCC[C@@H]1C(=O)N1CCC[C@H]1C(=O)N[C@H](C(=O)N[C@@H](CCCCN)C(=O)N[C@H](C(=O)N[C@@H](Cc1ccc(O)cc1)C(=O)N[C@H](C(=O)N[C@@H](CCCCN)C(=O)N[C@H](C(=O)N[C@@H](CCCCN)C(=O)N[C@H](C(N)=O)C(C)C)C(C)C)C(C)C)C(C)C)[C@@H](C)O)C(C)C)C(C)C)C(C)C)C(C)C [tyrosine-functionalized peptide] (H-VKVKVKVKV[dP]PTKVYVKVKV-NH2)
